Assay [1] addresses T1, Cathepsin V (Homo sapiens, UniProt O60911).
T1 construct: made in house
The assay is described as follows: Second-order rate constants of inhibition (kobs/[I]), cathepsin V. Format: biochemical. To be noted: Figure 4D; Cy5- and BODIPY-labeled probes. As for the experimental part:
(§1) All kinetic studies were performed using an fMax fluorescence plate reader (Molecular Devices) in kinetic mode with 96- or 384-well plates. ACC fluorescence was monitored at excitation and emission wavelengths of 355 and 460 nm, respectively. Recombinant human cysteine cathepsins L, V, B, K, and S were expressed and purified as previously described. Prior to use, all cysteine cathepsins were titrated with E64 to normalize enzymatic activity. Assays for cathepsins were conducted in 100 mM sodium acetate buffer containing 10 mM NaCl and 10 mM DTT (pH 5.5). Breast cancer cell lysates (BT-474, MCF-7, MDA-MB-231) were prepared by culturing cells to confluence in the appropriate media, replacing media with PBS, and harvesting the cells using a cell scraper (without trypsin). The cells were pelleted by centrifugation (400 × g, 5 min), resuspended in PBS, and centrifuged again under the same conditions. After removal of the supernatant, the pellet was resuspended in cathepsin assay buffer (excluding DTT) and sonicated. Lysates were then clarified by centrifugation (12,000 × g, 5 min), and the supernatants were collected and stored at −80 °C until use. All enzymatic assays, including HyCoSuL library screening and kinetic analyses of synthetic substrates, inhibitors, probes and prodrugs, were conducted at 37 °C and repeated at least three times. Mean values are reported. Kinetic data were analyzed using GraphPad Prism software (version 10.4.1).
(§2) The second-order rate constants of inhibition (k obs/[I]) were determined for human recombinant cathepsins S, B, L, and V using their respective assay buffers. All measurements were performed under pseudo-first-order kinetic conditions, as previously described. Inhibitors or ABPs were serially diluted in assay buffer and transferred to a 96-well plate. Each well was supplemented with the fluorogenic substrate Cbz-Phe-Arg-AMC at a final concentration of 25 μM and preincubated for 15 min. In parallel, enzymes were preactivated in assay buffer for 15 min at room temperature. Following preincubation, the activated enzymes were added to the wells, and fluorescence was monitored immediately for 30 min. The k obs/[I] values (M^-1S^-1) were calculated from the progress curves and averaged from at least three independent experiments. Final inhibitor (or ABP) concentrations were maintained at a minimum of 5-fold excess relative to enzyme concentrations to ensure pseudo-first-order conditions. Results were analyzed in GraphPad Prism and are reported as mean ± standard deviation.

Assay [2] addresses T2, Cathepsin L (Homo sapiens, UniProt P07711).
T2 construct: made in house
The assay is described as follows: Second-order rate constants of inhibition (kobs/[I]), cathepsin L. Format: biochemical. The following applies: Figure 4D; Cy5- and BODIPY-labeled probes. The method, then:
as §1, §2

In assay [3] the target is T3, active cathepsin S in MDA-MB-231 live cells (Homo sapiens, UniProt P25774).
T3 construct: endogenous in cells; host or cells: MDA-MB-231
T3 sequence (P25774 115-331): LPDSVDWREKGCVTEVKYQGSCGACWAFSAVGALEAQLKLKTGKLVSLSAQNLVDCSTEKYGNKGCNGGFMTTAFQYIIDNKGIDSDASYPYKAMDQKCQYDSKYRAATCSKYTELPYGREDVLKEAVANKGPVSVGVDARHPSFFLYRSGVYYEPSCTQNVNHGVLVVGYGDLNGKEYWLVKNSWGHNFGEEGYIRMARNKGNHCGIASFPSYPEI
Nature of the assay: Labeling of active cathepsin S in MDA-MB-231 live cells with Cy5 probes. Format: cell-based. To be noted: probe 1 μM, 0,5 to 24 h. As for the experimental part:
(§3) 50,000 of MDA-MB-231 cells were seeded into 12-well plate and allowed to attach overnight. The next day, OG-233 and OG-234 probes (1 μM final concentration) were added to the cells and incubated for various times (from 0,5 h up to 24 h). Control cells were preincubated with cathepsin S inhibitors (JN1, JN4, JN7) at 25 μM for 2 h, and then incubated with OG-233 or OG-234 probes for 24 h. Next, cells were harvested and prepared for SDS-PAGE analysis as described in the above section. Electrophoresis was run for 25 min (4−12% Bis-Tris Plus 10-well gel, 200 V). Next, proteins were transferred onto the membrane (0.2 μm nitrocellulose membrane, 10 V, 60 min) and Ponceau S was used to verify equal loading and transfer. Membranes were then blocked with 5% BSA in TBS-T buffer for 1 h at RT. Membranes were next incubated anticathepsin S antibody (1:1,000, overnight, 4 °C), and the next day with a secondary antibody (IRDye 800CW, donkey anti-Goat) for 30 min at RT, and scanned at 680 and 800 nm using the Sapphire biomolecular imager (Azure Biosystems) to detect the Cy5 probes and cathepsin S. All images were analyzed with Image Studio software.

Assay [4] concerns the target T4, Cathepsin S (Homo sapiens, UniProt P25774).
T4 construct: made in house
The assay is described as follows: Second-order rate constants of inhibition (kobs/[I]), cathepsin S. Format: biochemical. As for the experimental part:
as §1, §2

The target of assay [5] is T5, Cathepsin B (Homo sapiens, UniProt P07858). The assay is described as follows: Labeling of cathepsin B in MDA-MB-231 live cells with Cy5 probes. Format: cell-based. To be noted: cellular environments; probe labeling. Details: endogenous in cells; host or cells: MDA-MB-231. The method, then:
as §3

The target in assay [6] is T5, Cathepsin B. Nature of the assay: Second-order rate constants of inhibition (kobs/[I]), cathepsin B. Format: biochemical. Details: made in house. To be noted: Figure 4D; Cy5- and BODIPY-labeled probes. As for the experimental part: as §1, §2
For assay [7], the target named is T4, Cathepsin S. The assay is described as follows: SDS-PAGE profiling of cathepsin labeling by OG-233 ABP. Format: biochemical. The following applies: cathepsins 10 nM; probe 10, 100, 500 nM; 30 min. The method, then: Subsequently, each enzyme preparation was incubated with OG-233 at final probe concentrations of 10 nM, 100 nM, and 500 nM for 30 min in a total reaction volume of 200 μL. After incubation, 100 μL of 3× SDS loading buffer containing DTT was added to each sample. The mixtures were boiled for 5 min, and 20 μL of each sample was loaded onto 4−12% Bis-Tris Plus gels (15-well format). Electrophoresis was performed at 200 V for 30 min alongside 2 μL of PageRuler Prestained Protein Ladder. Following separation, the gels were scanned directly at 700 nm (Cy5 fluorescence channel, excitation 685 nm) using a Sapphire biomolecular imager (Azure Biosystems). Band intensities corresponding to labeled cathepsins were quantified using Image Studio software.

T4 sequence (P25774 115-331): as above
T1 sequence (O60911 114-334): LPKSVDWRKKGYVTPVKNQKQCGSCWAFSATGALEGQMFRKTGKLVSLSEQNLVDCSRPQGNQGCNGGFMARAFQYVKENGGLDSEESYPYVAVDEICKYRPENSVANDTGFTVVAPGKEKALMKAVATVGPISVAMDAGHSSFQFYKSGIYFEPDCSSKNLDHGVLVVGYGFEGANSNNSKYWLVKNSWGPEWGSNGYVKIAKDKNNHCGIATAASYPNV
T2 sequence (P07711 114-333): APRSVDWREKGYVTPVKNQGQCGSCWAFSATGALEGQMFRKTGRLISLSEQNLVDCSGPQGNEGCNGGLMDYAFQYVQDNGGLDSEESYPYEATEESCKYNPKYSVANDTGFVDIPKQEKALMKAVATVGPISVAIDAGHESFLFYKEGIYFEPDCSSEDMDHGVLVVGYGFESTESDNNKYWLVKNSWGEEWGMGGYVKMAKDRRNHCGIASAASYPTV

As for “Cy5-PEG(4)-Phe(F5)-Cit-Lys(2ClZ)-Glu(Me)-AOMK [OG-233]”, the “kobs/[I] Cath V” value in assay [1] worked out at 460 M⁻¹ s⁻¹. For the same substance, in assay [2], the “kobs/[I] Cath L” value stood at 570 M⁻¹ s⁻¹. Further, the “detection of active cathepsin S in living cells” value in assay [3] was “able to detect active cathepsin S as soon as upon 3 h incubation”. Besides, in assay [4] (Figure 4D, Cy5- and BODIPY-labeled probes), the “kobs/[I] Cath S” value is 1,537,000 M^-1s^-1. Besides, in assay [4] (Figure 4D, calculated from kobs/[I], cathepsin S over cathepsin B), the “Selectivity S to B” value is 180. Moreover, the “Selectivity S to L” value in assay [4] (Figure 4D, calculated from kobs/[I], cathepsin S over cathepsin L) is on record as 2,700. Moreover, in assay [4] (Figure 4D, calculated from kobs/[I], cathepsin S over cathepsin V), the “Selectivity S to V” value is listed as 3,340. Also, the “higher potency than the unlabeled parent inhibitor” value in assay [4] (cathepsin S kobs/[I], probe vs parent inhibitor) is reported as “over 2 fold”. Besides, in assay [4] (kobs/[I] based), the “selectivity for cathepsin S over cathepsin L” value is listed as > 2000 fold and the “selectivity for cathepsin S over cathepsin V” value is > 500 fold. Also, the “off-target labeling of cathepsin B in cells” value in assay [5] is given as “minor off-target labeling of cathepsin B”. Moreover, the “kobs/[I] Cath B” value in assay [6] is recorded as 8,520 M^-1s^-1. In addition, the “labeling of recombinant cathepsins (fluorescent gel scanning)” value in assay [7] is “labeled recombinant cathepsin S over other cathepsins”.

Values taken from publication PMC13403234, “Engineering Cathepsin S Selective Chemical Probes and Antibody−Drug Conjugates through Substrate Profiling with Unnatural Amino Acids” (Journal of Medicinal Chemistry, 2026).
